Results as given in paper PMC10281321, “Discovery of an effective anti-inflammatory agent for inhibiting the activation of NF-κB” (Journal of Enzyme Inhibition and Medicinal Chemistry, 2023).

Legend:
Format in all cases: cell-based
NF-κB = NF-κB transcriptional activity dual-luciferase reporter assay, TNF-α stimulated; details: Homo sapiens, HEK-293T, HEK293T cells transfected with NF-κB reporter plasmid, stimulated by TNF-α
Description: 4.5. NF-κB transcriptional activity assay
HEK293T cells were seeded into 96 well plate at a density of 1×10^5 cells per well. After incubated for 24 hours, cells were transfected with NF-κB reporter plasmid at 100 ng/well using lip2000.Six hours later, the medium was replaced by fresh medium containing tested compounds with different concentrations. Then incubated for another hour, TNF-α was added for a final concentration at 10 ng/mL.12 hours later, the cell lysate was collected and the RLU was measured by microplate reader. […]

[1] = test system: LPS-stimulated RAW264.7 cells; assay: NO release inhibition in LPS-stimulated RAW264.7 cells (Griess reagent); details: for IC50: Mus musculus, LPS-stimulated RAW264.7 cells, Griess Reagent; for anti-inflammatory activity (in words): SAR summary covering NO release and NF-κB reporter inhibition
Description: After incubated for 24 hours, cells were treated with tested compounds for different
concentrations(3.125,6.25,12.5,25 and 50μM) for 1 h, and then treated with 1 μg/mL LPS
for further 24 h. The supernatants were collected and NO level was measured using
Griess reagent (Beyotime, China). […]

[2] = Cytotoxicity by MTT assay

Row | SMILES | IC50 (NF-κB) | IC50 [1] | IC50 [2] | cytotoxicity (in words) [2] | anti-inflammatory activity (in words) [1]
1 | Cc1ccc(S(=O)(=O)/C=C/C#N)cc1 [Bay11-7082, reference compound] | 0.0915 ± 0.0103 µM | 2.1 ± 0.7 µM | 22.7 ± 3.4 µM |  | 
2 | CCc1ccc(-c2cnc(N)c(C(=O)Nc3ccccc3N)c2)cc1 [Compound 12] | 0.571 ± 0.0093 µM | 0.9 ± 0.5 µM | 4.7 ± 1 µM |  | 
3 | CCc1ccc(-c2cnc(N)c(C(=O)Nc3ccc(OC(F)(F)F)cc3)c2)cc1 [Compound 18] | > 2 µM | > 50 µM | > 25 µM |  | loss of anti-inflammatory activity
4 | CCc1ccc(NC(=O)c2cc(-c3ccc(CC)cc3)cnc2N)cc1 [Compound 19] | > 2 µM | 28.5 ± 2.1 µM | > 25 µM |  | 
5 | CCc1ccc(-c2cnc(N)c(C(=O)Nc3ccc(C(C)C)cc3)c2)cc1 [Compound 21] | > 2 µM | > 50 µM | > 25 µM |  | 
6 | CCc1ccc(-c2cccc(C(=O)Nc3ccc(NC(C)=O)cc3)c2)cc1 [Compound 23] | > 2 µM | 32.7 ± 3.4 µM | > 25 µM |  | 
7 | CCc1ccc(-c2cc(C(=O)Nc3ccc(NC(C)=O)cc3)ccn2)cc1 [Compound 24] | 0.763 ± 0.0151 µM | 14.1 ± 1.7 µM | > 25 µM |  | 
8 | CCc1ccc(-c2cncc(C(=O)Nc3ccc(NC(C)=O)cc3)c2)cc1 [Compound 25] | 1.33 ± 0.0163 µM | 25.4 ± 3.1 µM | > 25 µM |  | 
9 | CCc1ccc(-c2ccnc(C(=O)Nc3ccc(NC(C)=O)cc3)c2)cc1 [Compound 26] | 1.96 ± 0.0535 µM | 19.5 ± 3.2 µM | > 25 µM |  | 
10 | CCc1ccc(-c2cc(C(=O)Nc3ccc(NC(C)=O)cc3)cnc2N)cc1 [Compound 27] | 1.11 ± 0.0124 µM | 21.5 ± 2.6 µM | > 25 µM |  | 

Second part, led by results:

Row | IC50 (NF-κB) | IC50 [1] | SMILES | IC50 [2] | cytotoxicity (in words) [2] | anti-inflammatory activity (in words) [1]
11 | 1.62 ± 0.0132 µM | 19.7 ± 2.6 µM | CCc1ccc(-c2cnc(N)c(C(=O)Nc3ccccc3)c2)cc1 [Compound 6] | > 25 µM |  | 
12 | > 2 µM | 26.7 ± 3.2 µM | CCc1ccc(-c2cnc(N)c(C(=O)Nc3ccc(C)cc3)c2)cc1 [Compound 7] | > 25 µM |  | 
13 | 1.329 ± 0.0115 µM | 15.2 ± 2.8 µM | CCc1ccc(-c2cnc(N)c(C(=O)Nc3cccc(C)c3)c2)cc1 [Compound 8] | > 25 µM |  | 
14 | > 2 µM | 30.2 ± 4 µM | CCc1ccc(-c2cnc(N)c(C(=O)Nc3ccccc3C)c2)cc1 [Compound 9] | > 25 µM |  | 
15 | 0.42 ± 0.0104 µM | 2.3 ± 0.9 µM | CCc1ccc(-c2cnc(N)c(C(=O)Nc3ccc(N)cc3)c2)cc1 [Compound 10] | 7.3 ± 1.2 µM |  | 
16 | 0.0958 ± 0.0062 µM | 1.7 ± 0.9 µM | CCc1ccc(-c2cnc(N)c(C(=O)Nc3cccc(N)c3)c2)cc1 [Compound 11] | > 25 µM |  | 
17 | 0.7139 ± 0.0042 µM | 10.2 ± 5.4 µM | CCc1ccc(-c2cnc(N)c(C(=O)Nc3ccc(NC(C)=O)cc3)c2)cc1 [Compound 13] | > 25 µM | cytotoxicity is reduced | 
18 | 0.167 ± 0.0084 µM | 3.2 ± 1.1 µM | CCc1ccc(-c2cnc(N)c(C(=O)Nc3cccc(NC(C)=O)c3)c2)cc1 [Compound 14] | > 25 µM |  | strong anti-inflammatory activity
19 | 0.532 ± 0.0135 µM | 1.1 ± 0.4 µM | CCc1ccc(-c2cnc(N)c(C(=O)Nc3ccccc3NC(C)=O)c2)cc1 [Compound 15] | 3.2 ± 0.8 µM |  | strong anti-inflammatory activity
20 | > 2 µM | > 50 µM | CCc1ccc(-c2cnc(N)c(C(=O)Nc3ccc(F)cc3)c2)cc1 [Compound 16] | > 25 µM |  | 
21 | > 2 µM | > 50 µM | CCc1ccc(-c2cnc(N)c(C(=O)Nc3ccc(Cl)cc3)c2)cc1 [Compound 17] | > 25 µM |  | 
22 | > 2 µM | 22 ± 0.8 µM | CCc1ccc(-c2cnc(N)c(C(=O)Nc3ccc(OC)cc3)c2)cc1 [Compound 20] | > 25 µM |  | 
23 | > 2 µM | > 50 µM | CCc1ccc(-c2cnc(N)c(C(=O)Nc3ccc(C(N)=O)cc3)c2)cc1 [Compound 22] | > 25 µM |  | loss of anti-inflammatory activity
